The record followed here is PMC6013247, “Preclinical characterization of INCB053914, a novel pan-PIM kinase inhibitor, alone and in combination with anticancer agents, in models of hematologic malignancies” (PLoS ONE, 2018).

In one data set the target is TRKA (Homo sapiens, UniProt P04629). Put plainly: Kinase selectivity panel. The format is biochemical. Particulars: [ATP] = 1 mM.
The next data set deals with AURKA (Homo sapiens, UniProt O14965). Put plainly: Kinase selectivity panel. The format is biochemical. Particulars: [ATP] = 1 mM.
A further data set concerns the target AKT1 (Homo sapiens, UniProt P31749). Put plainly: Kinase selectivity panel. The format is biochemical. Particulars: [ATP] = 1 mM.
The target of the next data set is ROCK1 (Homo sapiens, UniProt Q13464). Put plainly: Kinase selectivity panel. The format is biochemical. Particulars: [ATP] = 1 mM.
For data set [1], the system named is PIM2 expression and 4E-BP1 phosphorylation in whole blood samples. Put plainly: Pharmacodynamic assessment of blood samples from patients with AML in the phase 1/2 trial. The format is in vivo, human. Particulars: patients with AML receiving INCB053914 100 mg twice a day; blood 0 to 6 hours post-dose.
A further data set has as its target GSK3B (Homo sapiens, UniProt P49841). Put plainly: Kinase selectivity panel. The format is biochemical. Particulars: [ATP] = 1 mM.
In a further data set the target is CLK3 (Homo sapiens, UniProt P49761). Put plainly: Kinase selectivity panel. The format is biochemical. Particulars: [ATP] = 1 mM.
The target of the next data set is SRC (Homo sapiens, UniProt P12931). Put plainly: Kinase selectivity panel. The format is biochemical. Particulars: [ATP] = 1 mM.
Data set [2] has as its system PIM2 expression in KG-1a, Pfeiffer and KMS-12-PE cells. Put plainly: Western blot of PIM2 expression in cell lines. The format is cell-based. Particulars: KG-1a (AML). On the technique in general: A western blot detects proteins with antibodies after separation by electrophoresis.
A short description of data set [3]: Plasma concentrations of INCB053914 in tumor-bearing mice. The format is in vivo, mouse. Particulars: up to 16 hours post oral administration, MOLM-16 and KMS-12-BM tumor-bearing mice. As for the experimental part: Human MOLM-16 (AML) and KMS-12-BM (MM) xenografts were established in SCID mice. For the evaluation of intratumoral pBAD inhibition, tumor-bearing mice (three to eight mice/group) were treated with a single oral dose of INCB053914 at doses ranging from 0 (vehicle) to 100 mg/kg. In one representative experiment, mice were sacrificed 4 hours after a single dose, and tumors were collected to analyze the levels of pBAD relative to those of vehicle-administered controls. Plasma samples were collected for pharmacokinetic analysis.
Concentrations of INCB053914 in plasma were analyzed using liquid chromatography tandem–mass spectrometry at 2, 4, 8, and 16 hours postdose (see Supporting Information, S3 File).
Blood samples from each study were collected using EDTA and centrifuged to obtain plasma. The calibration curves were prepared in mouse plasma (BioreclamationIVT, Westbury, New York). Samples (50 µl) were placed in a 2-ml square well plate (Costar, Corning, New York). Acetonitrile/methanol 9/1 v/v (550 µl) containing an internal standard was added for precipitation of the protein. The 96-well plate was covered, vortexed for 5 minutes, and centrifuged for 10 minutes at 3,000 rpm. […] The samples were analyzed for INCB053914 by liquid chromatography tandem–mass spectrometry using gradient high-performance liquid chromatography and atmospheric pressure chemical ionization.

In the next data set the target is SGK2 (Homo sapiens, UniProt Q9HBY8). Put plainly: Kinase selectivity panel. The format is biochemical. Particulars: [ATP] = 1 mM.
The target in a further data set is MAP3K8 (Homo sapiens, UniProt P41279). Put plainly: Kinase selectivity panel. The format is biochemical. Particulars: [ATP] = 1 mM.
Another data set concerns MM cell lines. Put plainly: Cell proliferation assay, all MM cell lines tested. Particulars: read-out: mean GI50 values, range over all MM cell lines tested. The format is cell-based. As for the experimental part: The antiproliferative effects of INCB053914 on hematologic tumor cells were investigated using assays described in the Supporting Information (S2 File).
Cell proliferation assays. […] After 3 to 4 days, [^3H]-thymidine (1 μCi/well) (PerkinElmer) in PBS (10 μl) was added to the cell culture for an additional 12 hours. The incorporated radioactivity was separated by filtration with water through GF/B filters (Packard Bioscience, Meriden, Connecticut) and measured by liquid scintillation counting with a TopCount (Packard Bioscience).

Another data set deals with CDK2 (Homo sapiens, UniProt P24941). Put plainly: Kinase selectivity panel. Particulars: [ATP] = 1 mM. The format is biochemical.
A further data set concerns MOLM-16 (AML) xenografts. Put plainly: Tumor growth in MOLM-16 (AML) xenograft. The format is in vivo, mouse. As for the experimental part: Female immune compromised (severe combined immunodeficiency [SCID]) mice (5–9 weeks of age; Charles River Laboratories, Wilmington, Massachusetts) were inoculated with MOLM-16, KG-1, or KMS-12-BM cells. A cell suspension in Dulbecco’s phosphate-buffered saline (DPBS) (1 × 10^8 cells/ml) was mixed 1:1 (v/v) with matrigel, and 200 μl was injected subcutaneously into the flank of each mouse. Studies of INCB053914 combination regimens used xenograft models derived from INA-6 (MM) cells or Pfeiffer (DLBCL) cells. INA-6 tumor fragments were injected subcutaneously as brei (100 μl in Hank’s balanced salt solution [HBSS, 1:10 v/v]) into the flank of each mouse; Pfeiffer tumor fragments (1 cm × 1 cm) were directly implanted. The treatment of tumor-bearing mice started 7 to 24 days after tumor inoculation for efficacy studies and approximately 14 to 27 days after tumor inoculation for pharmacodynamic studies.
For efficacy studies, mice were sorted to obtain approximately equivalent mean tumor volumes in each group. The starting mean tumor volume in efficacy studies for all groups ranged from 158 mm^3 to 249 mm^3, and groups consisted of eight or nine animals. The mean tumor volume in pharmacodynamic studies for all groups ranged from 114 mm^3 to 833 mm^3, and groups consisted of three to eight animals. […]
Tumor volume was calculated in two dimensions using the equation: volume = [length × (width^2)] / 2, where the larger number was length and the smaller number was width. Effects on tumor growth were reported as percent tumor growth inhibition calculated as (1 − [treatment volume / control volume]) × 100, where control volume was the vehicle/untreated tumor volume on a given day and treatment volume was any treatment group tumor volume on that same day. Statistical significance of differences between treatment and vehicle controls was assessed using analysis of variance single factor test.

In data set [4] the test system is human KG-1 AML xenografts. Put plainly: Tumor growth in KG-1 (AML) xenograft, combination with cytarabine. The format is in vivo, mouse. Particulars: KG-1 (AML) tumors.
Protocol: Female immune compromised (severe combined immunodeficiency [SCID]) mice (5–9 weeks of age; Charles River Laboratories, Wilmington, Massachusetts) were inoculated with MOLM-16, KG-1, or KMS-12-BM cells. A cell suspension in Dulbecco’s phosphate-buffered saline (DPBS) (1 × 10^8 cells/ml) was mixed 1:1 (v/v) with matrigel, and 200 μl was injected subcutaneously into the flank of each mouse. […] The treatment of tumor-bearing mice started 7 to 24 days after tumor inoculation for efficacy studies and approximately 14 to 27 days after tumor inoculation for pharmacodynamic studies.
Synergistic effects of INCB053914 in combination with INCB050465, cytarabine, or itacitinib, were assessed based on the Bliss independence model [56, 57]. In this model, the expected additive effect, with the assumption that concentration dependent effects of 2 drugs (A and B) are independent, is given by the equation EIND = EA + EB – EA •EB, where 0 ≤ EIND ≤ 1; EA and EB are the magnitudes of effects of A and B alone at given concentrations.
The interaction between effects of A and B can be described by the equation Combination Index = EIND/ EOBS, where EOBS is the observed combined effect of A + B expressed as a probability (0 ≤ EOBS ≤ 1). […]
The target of another data set is LOK (Homo sapiens, UniProt O94804). Put plainly: Kinase selectivity panel. The format is biochemical. Particulars: [ATP] = 1 mM.

Bounds are passed on as bounds.

Chain of AKT1 (P31749 whole entry): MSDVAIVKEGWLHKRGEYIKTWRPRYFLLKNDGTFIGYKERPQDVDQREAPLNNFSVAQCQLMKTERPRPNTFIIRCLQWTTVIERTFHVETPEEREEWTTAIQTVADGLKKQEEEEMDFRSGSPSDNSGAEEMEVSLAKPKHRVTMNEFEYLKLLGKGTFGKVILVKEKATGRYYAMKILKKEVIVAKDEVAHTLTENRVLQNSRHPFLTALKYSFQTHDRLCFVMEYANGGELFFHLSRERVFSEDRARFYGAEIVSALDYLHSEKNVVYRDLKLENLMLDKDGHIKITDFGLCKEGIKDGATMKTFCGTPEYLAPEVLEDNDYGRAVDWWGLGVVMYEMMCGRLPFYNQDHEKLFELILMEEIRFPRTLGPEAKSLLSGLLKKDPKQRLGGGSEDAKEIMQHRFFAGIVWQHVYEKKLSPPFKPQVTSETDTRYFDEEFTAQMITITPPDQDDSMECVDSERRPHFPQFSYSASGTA
Chain of GSK3B (P49841 whole entry): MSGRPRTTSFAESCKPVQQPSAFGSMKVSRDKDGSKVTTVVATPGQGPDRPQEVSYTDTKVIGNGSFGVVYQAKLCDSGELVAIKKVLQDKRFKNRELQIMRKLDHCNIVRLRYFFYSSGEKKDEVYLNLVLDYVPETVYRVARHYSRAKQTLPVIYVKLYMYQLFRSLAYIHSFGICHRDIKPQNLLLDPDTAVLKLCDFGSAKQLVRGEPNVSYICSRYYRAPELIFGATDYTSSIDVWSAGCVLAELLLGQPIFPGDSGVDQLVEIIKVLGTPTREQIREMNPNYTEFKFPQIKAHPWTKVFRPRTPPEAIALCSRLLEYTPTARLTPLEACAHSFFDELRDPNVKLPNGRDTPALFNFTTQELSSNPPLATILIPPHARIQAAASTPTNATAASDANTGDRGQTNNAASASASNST
Chain of SGK2 (Q9HBY8 whole entry, species assumed): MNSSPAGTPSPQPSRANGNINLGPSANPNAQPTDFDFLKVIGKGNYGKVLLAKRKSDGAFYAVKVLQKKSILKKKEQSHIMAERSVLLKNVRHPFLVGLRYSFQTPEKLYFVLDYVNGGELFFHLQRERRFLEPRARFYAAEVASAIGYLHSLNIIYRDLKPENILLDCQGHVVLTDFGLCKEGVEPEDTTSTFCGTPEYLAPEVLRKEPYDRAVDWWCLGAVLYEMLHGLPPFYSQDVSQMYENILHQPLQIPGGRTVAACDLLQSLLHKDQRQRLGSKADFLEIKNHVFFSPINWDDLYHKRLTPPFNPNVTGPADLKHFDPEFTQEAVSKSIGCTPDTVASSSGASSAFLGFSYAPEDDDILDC
Chain of CLK3 (P49761 whole entry): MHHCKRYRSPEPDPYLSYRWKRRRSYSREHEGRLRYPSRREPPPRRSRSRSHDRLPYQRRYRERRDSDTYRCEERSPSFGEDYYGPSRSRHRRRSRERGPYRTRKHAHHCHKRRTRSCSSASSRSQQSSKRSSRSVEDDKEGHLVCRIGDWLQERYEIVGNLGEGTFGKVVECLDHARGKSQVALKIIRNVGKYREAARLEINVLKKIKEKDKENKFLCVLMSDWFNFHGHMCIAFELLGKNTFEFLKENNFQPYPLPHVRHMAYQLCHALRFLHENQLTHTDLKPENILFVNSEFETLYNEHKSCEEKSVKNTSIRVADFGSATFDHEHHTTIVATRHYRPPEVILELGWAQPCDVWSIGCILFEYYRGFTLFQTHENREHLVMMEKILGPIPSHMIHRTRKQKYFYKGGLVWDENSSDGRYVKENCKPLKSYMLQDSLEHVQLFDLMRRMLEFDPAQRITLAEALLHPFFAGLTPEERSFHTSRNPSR
Chain of MAP3K8 (P41279 whole entry): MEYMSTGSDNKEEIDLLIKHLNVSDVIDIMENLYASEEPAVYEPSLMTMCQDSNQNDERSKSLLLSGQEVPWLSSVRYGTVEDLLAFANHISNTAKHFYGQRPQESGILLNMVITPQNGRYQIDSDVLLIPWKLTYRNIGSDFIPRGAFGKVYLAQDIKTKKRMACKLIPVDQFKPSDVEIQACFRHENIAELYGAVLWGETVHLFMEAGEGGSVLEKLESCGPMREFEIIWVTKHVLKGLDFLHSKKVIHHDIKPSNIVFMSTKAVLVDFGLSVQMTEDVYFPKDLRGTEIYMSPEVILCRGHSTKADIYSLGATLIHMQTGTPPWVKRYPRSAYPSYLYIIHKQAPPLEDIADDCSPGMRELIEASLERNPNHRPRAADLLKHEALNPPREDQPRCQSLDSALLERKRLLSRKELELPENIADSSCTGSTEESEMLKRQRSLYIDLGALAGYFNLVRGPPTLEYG
Chain of AURKA (O14965 whole entry): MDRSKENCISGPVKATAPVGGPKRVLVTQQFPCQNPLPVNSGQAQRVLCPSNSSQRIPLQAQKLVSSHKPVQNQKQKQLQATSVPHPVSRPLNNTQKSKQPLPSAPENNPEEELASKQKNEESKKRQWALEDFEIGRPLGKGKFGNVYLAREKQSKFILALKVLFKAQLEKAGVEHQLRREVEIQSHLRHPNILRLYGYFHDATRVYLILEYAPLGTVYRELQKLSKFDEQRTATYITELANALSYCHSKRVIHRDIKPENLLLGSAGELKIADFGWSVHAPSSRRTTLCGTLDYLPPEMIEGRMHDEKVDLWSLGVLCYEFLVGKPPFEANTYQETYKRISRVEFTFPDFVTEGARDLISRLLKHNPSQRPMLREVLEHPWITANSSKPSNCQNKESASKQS
Chain of LOK (O94804 whole entry): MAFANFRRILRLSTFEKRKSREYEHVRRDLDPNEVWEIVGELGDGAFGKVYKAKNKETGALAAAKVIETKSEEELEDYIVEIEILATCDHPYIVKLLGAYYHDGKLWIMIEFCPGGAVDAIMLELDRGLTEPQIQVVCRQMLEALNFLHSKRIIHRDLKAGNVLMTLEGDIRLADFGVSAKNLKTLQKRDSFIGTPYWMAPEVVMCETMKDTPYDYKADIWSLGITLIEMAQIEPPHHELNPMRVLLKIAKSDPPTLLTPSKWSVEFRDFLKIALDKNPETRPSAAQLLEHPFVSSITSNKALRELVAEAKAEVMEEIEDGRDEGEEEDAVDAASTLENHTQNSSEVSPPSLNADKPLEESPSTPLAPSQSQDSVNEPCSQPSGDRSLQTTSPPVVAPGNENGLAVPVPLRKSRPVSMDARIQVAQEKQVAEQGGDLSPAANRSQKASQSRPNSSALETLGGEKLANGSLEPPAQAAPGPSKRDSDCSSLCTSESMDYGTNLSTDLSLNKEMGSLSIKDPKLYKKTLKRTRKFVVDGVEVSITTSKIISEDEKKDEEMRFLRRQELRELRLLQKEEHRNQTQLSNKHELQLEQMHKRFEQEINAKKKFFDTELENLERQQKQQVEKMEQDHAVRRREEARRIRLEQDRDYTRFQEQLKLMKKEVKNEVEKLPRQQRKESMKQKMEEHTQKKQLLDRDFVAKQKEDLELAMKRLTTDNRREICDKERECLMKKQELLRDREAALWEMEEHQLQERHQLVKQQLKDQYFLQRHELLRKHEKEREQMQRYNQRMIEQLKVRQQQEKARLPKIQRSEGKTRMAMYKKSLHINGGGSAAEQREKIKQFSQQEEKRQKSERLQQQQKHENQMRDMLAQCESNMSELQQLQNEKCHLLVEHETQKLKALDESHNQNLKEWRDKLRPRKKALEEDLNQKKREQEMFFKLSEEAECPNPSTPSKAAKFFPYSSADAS
Chain of TRKA (P04629 33-796, species assumed): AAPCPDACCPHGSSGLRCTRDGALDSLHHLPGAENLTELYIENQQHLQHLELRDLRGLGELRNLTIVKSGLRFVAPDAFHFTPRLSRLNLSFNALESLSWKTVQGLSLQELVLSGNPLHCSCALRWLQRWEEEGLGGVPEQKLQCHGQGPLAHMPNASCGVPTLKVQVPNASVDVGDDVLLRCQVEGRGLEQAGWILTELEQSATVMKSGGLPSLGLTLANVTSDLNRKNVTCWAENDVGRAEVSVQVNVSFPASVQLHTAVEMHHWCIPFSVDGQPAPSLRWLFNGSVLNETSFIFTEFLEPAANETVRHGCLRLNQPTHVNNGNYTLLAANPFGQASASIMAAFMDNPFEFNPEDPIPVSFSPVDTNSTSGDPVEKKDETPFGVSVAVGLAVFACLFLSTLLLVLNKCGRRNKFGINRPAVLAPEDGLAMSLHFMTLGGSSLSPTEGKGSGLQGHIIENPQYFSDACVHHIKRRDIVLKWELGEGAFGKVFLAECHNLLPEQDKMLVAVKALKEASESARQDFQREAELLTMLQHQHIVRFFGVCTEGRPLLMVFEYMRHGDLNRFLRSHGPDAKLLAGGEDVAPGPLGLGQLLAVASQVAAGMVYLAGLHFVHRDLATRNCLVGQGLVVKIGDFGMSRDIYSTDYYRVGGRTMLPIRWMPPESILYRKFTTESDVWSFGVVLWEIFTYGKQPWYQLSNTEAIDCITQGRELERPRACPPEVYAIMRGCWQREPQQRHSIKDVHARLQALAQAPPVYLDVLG
Chain of SRC (P12931 whole entry, species assumed): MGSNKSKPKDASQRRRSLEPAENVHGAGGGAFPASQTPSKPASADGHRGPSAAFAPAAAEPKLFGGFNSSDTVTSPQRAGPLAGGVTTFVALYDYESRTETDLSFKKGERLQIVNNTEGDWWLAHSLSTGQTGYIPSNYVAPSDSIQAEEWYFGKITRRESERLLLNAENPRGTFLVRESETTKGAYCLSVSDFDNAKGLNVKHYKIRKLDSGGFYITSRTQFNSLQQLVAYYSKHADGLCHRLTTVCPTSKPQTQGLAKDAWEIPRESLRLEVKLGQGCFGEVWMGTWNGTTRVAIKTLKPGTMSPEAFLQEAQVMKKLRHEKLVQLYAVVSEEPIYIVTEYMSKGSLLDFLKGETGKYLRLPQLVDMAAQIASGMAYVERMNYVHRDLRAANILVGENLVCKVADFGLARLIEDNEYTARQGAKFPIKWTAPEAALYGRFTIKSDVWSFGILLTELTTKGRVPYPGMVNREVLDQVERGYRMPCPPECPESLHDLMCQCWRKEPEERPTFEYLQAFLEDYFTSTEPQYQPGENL

As for `C[C@H]1CN(c2c(NC(=O)c3ccc(F)c(-c4c(F)cccc4F)n3)cnc3c2CC[C@H]3O)C[C@@H](N)[C@@H]1O.O=P(O)(O)O` [INCB053914, N-((R)-4-((3R,4R,5S)-3-amino-4-hydroxy-5-methylpiperidin-1-yl)-7-hydroxy-6,7-dihydro-5H-cyclopenta[b]pyridin-3-yl)-6-(2,6-difluorophenyl)-5-fluoropicolinamide phosphate], the IC50 at TRKA, at AURKA, against AKT1, against ROCK1, against GSK3B and against CLK3 was over 20 µM in each case. The IC50 against SRC, on SGK2, on MAP3K8, on CDK2 and against LOK was over 20 µM throughout. The 4E-BP1 phosphorylation entry in data set [1] is given as “a decrease in 4E-BP1 phosphorylation”. Besides, the PIM2 expression levels entry in [1] is given as “an increase in PIM2 expression levels”. Besides, the PIM2 expression result in data set [2] was “increased PIM2 expression”. Also, the “plasma concentrations versus dose” value in data set [3] was “suggested dose proportionality”. Moreover, the GI50 – broadly, the concentration that inhibits growth by half – in the data set with MM cell lines was in the range of 0.0132 to 0.23 µM. Moreover, in the data set with MOLM-16 (AML) xenografts (MOLM-16 model), the “lowest dose at which tumor growth inhibition was apparent” value was 1 mg/kg. The “maximal tumor growth inhibition” value with MOLM-16 (AML) xenografts (MOLM-16 tumors, 30 mg/kg twice a day orally) worked out at 96%. For the same compound, in the data set on MOLM-16 (AML) xenografts (MOLM-16 tumors, 30 mg/kg twice a day, PR = ≥50% decrease in tumor volume vs treatment start, eight mice/group, 30 mg/kg), the “mice with a partial regression (PR)” value is “six of eight”. Further, the “tumor growth, single agent” value in data set [4] is recorded as “inhibited”.
